{
  "source": "patent US7875601B2",
  "about": "“Cancer treatment with epothilones” (Novartis AG, priority 1998, dated 2011)",
  "key": {"ZR-75-1 (Breast)": {"system": "ZR-75-1 (Breast)", "test": "Antiproliferative assay, ZR-75-1", "format": "cell-based, human", "details": "ZR-75-1, 5 d exposure, mean ± SD, n = 3; read-out: IC50 for growth inhibition", "protocol": "Antiproliferative assays are performed as previously described (Int. J. Cancer 43, 851-6 (1989)). Briefly, cells are seeded at 1.5×10^3 cells/well into 96-well microtiter plates and incubated overnight. Compounds are added in serial dilutions on day 1. The plates are then incubated for an additional 2 to 5 days, allowing for at least one cell doubling (cell line dependent), after which the cells are fixed with 3.3% v/v glutaraldehyde, washed with water and stained with 0.05% w/v methylene blue. After washing, the dye is eluted with 3% v/v HCl and the optical density measured at 665 nm with a SpectraMax 340 (Bucherer, Basel, Switzerland). IC50 values are determined by a computerized system (SoftPro, Bucherer, Basel, Switzerland) using the formula (OD test−OD start)/(OD control−OD start)×100. IC50 is defined as the drug concentration which leads to 50% of cells per well compared to control cultures (100%) at the end of incubation period."}, "[1]": {"test": "GLP toxicology study in dogs", "format": "in vivo", "details": "dog", "source_text": "Inclusion Criteria • The following criteria must be met for inclusion into the study: • 1. Male or female patients >18 years of age. • 2. […] At least one measurable, evaluable, or non-evaluable site of disease as defined by Southwestern Oncology Group (SWOG) Solid Tumor Response Criteria including tumor marker value that is above the institutional upper limit of normal. • 4. Women of childbearing potential must have a negative serum β-HCG pregnancy test prior to the initiation of study drug. Male and female patients of reproductive potential must agree to employ an effective method of birth control throughout the study and for up to 3 months following discontinuation of study drug. • 5. World Health Organization (WHO) Performance Status Score of ≦2. • 6. Life expectancy of at least 3 months. • 7. Written informed consent is obtained prior to any screening procedures. Exclusion Criteria • Exclusion from the study is required if any of the following apply: • 1. Female patients who are pregnant or breast-feeding. Postmenopausal women must be amenorrheic for at least 12 months to be considered of non-childbearing potential. • 2. […] This dose is calculated as one-third of the toxic dose low (TDL) in the most sensitive species studied which, for epothilone B, is the dog. […]"}, "[2]": {"system": "human PC-3M prostate carcinoma cells", "test": "Antitumor effect against orthotopically injected PC-3M cells", "format": "in vivo, male BALB/c nude mice", "details": "for Tumor Response (T/C %) Lymph Nodes / Tumor Response (T/C %) Prostate: day 42", "protocol": "A human androgen-independent prostate cancer cell line is used to establish subcutaneous and orthotopic models in mice. The human metastatic prostate carcinoma PC-3M is obtained from Dr. I. J. Fidler (MD Anderson Cancer Center, Houston, Tex., USA) and is cultured in Ham's F12K media supplemented with 7% v/v FBS. The PC-3M cell line is the result of isolation from liver metastasis produced in nude mice subsequent to intrasplenic injection of PC-3 cells [ATCC CRL 1435; American Type Culture Collection (Rockville, Md., USA)], and they can grow in Eagle's MEM supplemented with 10% fetal bovine serum, sodium pyruvate, non-essential amino acids, L-glutamine, a two-fold vitamin solution (Gibco Laboratories, Long Island, N.Y.) and penicillin-streptomycin (Flow Laboratories, Rockville, Md.). The PC-3M cell line is hormone-insensitive (that is, it grows in the absence of androgens). The PC-3 cell line is androgen receptor negative, as is presumably the derived PC-3M cell line. […] The cells are near-triploid with a modal number of 62 chromosomes. No normal Y chromosomes can be detected by Q-band analysis.\nHuman prostate carcinoma PC-3M cells (1×10^6 cells per 20 μl phosphate buffered saline) are injected into the left […] of the prostate of each animal (n=6-9/group) according the method previously described (see Stephenson et al., J. Natl. Cancer Inst. 84, 951-7 (1992)). Treatment is started on day 14 after cell injection. At this time point a mean tumor weight of ˜20 mg is established. Epothilone B is administered either once or once weekly. Mice are sacrificed 42 days post tumor inoculation, and the prostates are carefully removed, dissected free of adhering tissue and weighed. […] Mesenteric lymph nodes are examined for the presence of metastases, dissected free of adhering tissue and weighed.\nTumor weight and body weights are monitored once or twice weekly. All treatments are administered intravenously (i.v.) and are initiated 14 days post cell injection. Treatment with epothilone B varies the dose and frequency of administration. Antitumor activity is expressed as T/C % (mean tumor weight of treated animals divided by the mean tumor weight of control animals multiplied by 100)."}},
  "data": [
    {"smiles": "C/C(=C\\c1csc(C)n1)[C@@H]1C[C@@H]2O[C@]2(C)CCC[C@H](C)[C@H](O)[C@@H](C)C(=O)C(C)(C)[C@@H](O)CC(=O)O1", "note": "[epothilone B]", "values": [
      {"measurement": "IC50", "setting": "ZR-75-1 (Breast)", "result": "0.64 ± 0.42", "unit": "nM"},
      {"measurement": "Mortalities", "setting": "[1]; 0.1 mg/kg, repeated once 3 weeks later", "result": "no mortalities"},
      {"measurement": "toxic dose low (TDL)", "setting": "[1]; most sensitive species, estimated", "result": "~0.65", "unit": "mg/kg"},
      {"measurement": "% Body Weight Change", "setting": "[2]; 4 mg/kg, i.v. once per week", "result": "−1 ± 5", "unit": "%"},
      {"measurement": "Survival (No. alive/total)", "setting": "[2]; 4 mg/kg, i.v. once per week", "result": "8/9"},
      {"measurement": "Δ Body Weight", "setting": "[2]; 4 mg/kg, i.v. once per week", "result": "-1.2 ± 2.3", "unit": "g"},
      {"measurement": "Tumor Response (T/C %) Lymph Nodes", "setting": "[2]; 4 mg/kg, i.v. once per week", "result": 4, "unit": "%"},
      {"measurement": "Tumor Response (T/C %) Prostate", "setting": "[2]; 4 mg/kg, i.v. once per week", "result": 2, "unit": "%"},
      {"measurement": "% Body Weight Change", "setting": "[2]; 5 mg/kg, i.v. once per week", "result": "−25 ± 5", "unit": "%"},
      {"measurement": "Survival (No. alive/total)", "setting": "[2]; 5 mg/kg, i.v. once per week", "result": "7/9"},
      {"measurement": "Δ Body Weight", "setting": "[2]; 5 mg/kg, i.v. once per week", "result": "-6.8 ± 1.5", "unit": "g"},
      {"measurement": "Tumor Response (T/C %) Lymph Nodes", "setting": "[2]; 5 mg/kg, i.v. once per week", "result": 4, "unit": "%"},
      {"measurement": "Tumor Response (T/C %) Prostate", "setting": "[2]; 5 mg/kg, i.v. once per week", "result": 1, "unit": "%"},
      {"measurement": "% Body Weight Change", "setting": "[2]; 6 mg/kg, i.v. once", "result": "−6 ± 12", "unit": "%"},
      {"measurement": "Survival (No. alive/total)", "setting": "[2]; 6 mg/kg, i.v. once", "result": "9/9"},
      {"measurement": "Δ Body Weight", "setting": "[2]; 6 mg/kg, i.v. once", "result": "-1.4 ± 4.1", "unit": "g"},
      {"measurement": "Tumor Response (T/C %) Lymph Nodes", "setting": "[2]; 6 mg/kg, i.v. once", "result": 4, "unit": "%"},
      {"measurement": "Tumor Response (T/C %) Prostate", "setting": "[2]; 6 mg/kg, i.v. once", "result": 5, "unit": "%"},
      {"measurement": "% Body Weight Change", "setting": "[2]; 8 mg/kg, i.v. once", "result": "−13 ± 15", "unit": "%"},
      {"measurement": "Survival (No. alive/total)", "setting": "[2]; 8 mg/kg, i.v. once", "result": "7/9"},
      {"measurement": "Δ Body Weight", "setting": "[2]; 8 mg/kg, i.v. once", "result": "-5.2 ± 4.3", "unit": "g"},
      {"measurement": "Tumor Response (T/C %) Lymph Nodes", "setting": "[2]; 8 mg/kg, i.v. once", "result": 4, "unit": "%"},
      {"measurement": "Tumor Response (T/C %) Prostate", "setting": "[2]; 8 mg/kg, i.v. once", "result": 1, "unit": "%"},
      {"measurement": "animals with detectable metastases", "setting": "[2]; in each of the epothilone B treatment groups, all animals in vehicle controls", "result": "one"}
    ]}
  ]
}
